Numbered stars: 1 amine (or outer) side, 2 acyl side, 3 side chain; on linkers, the order of the positions; unused ones are H or OH. Bridge positions count the residues as written; N and C are the ends. Square brackets hold non-standard residues; d marks the D form. Peptide text beside a SMILES is read from it. X8 = C[C@@H](C(=O)[*:2])N(CCC(F)(F)F)[*:1]; X1 = O=C(CN(CCC(F)(F)F)[*:1])[*:2]; Hyp = O=C(O)[C@@H]1C[C@@H](O)CN1; Gly(N-CH2CH2OH) = O=C(O)CNCCO; NMeNle = CCCC[C@H](NC)C(=O)O; NMeA = CN[C@@H](C)C(=O)O; Dab = NCC[C@H](N)C(=O)O

For this assay, the target named is T1, PD-1-Ig binding to PD-L1-TVMV-His (PD-L1-His) (Homo sapiens, UniProt Q9NZQ7).
T1 construct: hPDL1(19-239)-TVMV-His; made in house; host or cells: HEK293T
T1 sequence (Q9NZQ7 with tags, fused parts or gaps): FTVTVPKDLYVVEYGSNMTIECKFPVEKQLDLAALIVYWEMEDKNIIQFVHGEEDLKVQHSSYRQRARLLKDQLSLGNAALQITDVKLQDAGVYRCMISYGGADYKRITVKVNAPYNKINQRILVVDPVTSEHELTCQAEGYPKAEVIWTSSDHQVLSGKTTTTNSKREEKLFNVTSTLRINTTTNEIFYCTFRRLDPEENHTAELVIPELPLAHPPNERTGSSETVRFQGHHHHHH
As to the kind of experiment: PD-1/PD-L1 Homogenous Time-Resolved Fluorescence (HTRF) binding assay. To be noted: range class; PD-L1-His 10 nM, PD-1-Ig 20 nM. A digest of the protocol:
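Compound was pre-incubated 15 min with PD-L1-His (10 nM final; human, cynomolgus, mouse or other species), then PD-1-Ig (20 nM final) was added for a further 15 min. Detection used Eu-cryptate anti-Ig (1 nM) and APC anti-His (20 nM), read after 30 min as the HTRF 665/620 nm ratio. Buffer was dPBS, 0.1% BSA, 0.05% Tween-20.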
(Time-resolved FRET reads energy transfer from a long-lived donor to a nearby acceptor.)
As a reminder, the IC50 is the concentration that gives 50% inhibition. As for `CCCC[C@H]1C(=O)N[C@@H](CC(C)C)C(=O)N[C@H](C(=O)NCC(N)=O)CSCC(=O)N[C@@H](Cc2ccc(O)cc2)C(=O)N(C)[C@@H](C)C(=O)N[C@@H](CC(N)=O)C(=O)N2CCC[C@H]2C(=O)N[C@@H](Cc2cnc[nH]2)C(=O)N[C@@H](CCC(=O)O)C(=O)N2C[C@H](O)C[C@H]2C(=O)N[C@@H](Cc2c[nH]c3ccccc23)C(=O)N[C@@H](CCN)C(=O)N[C@@H](Cc2c[nH]c3ccccc23)C(=O)N(CCC(F)(F)F)[C@@H](C)C(=O)N1C` [Example 3041] ({CH2CO}-Y[NMeA]NPHE[Hyp]W[Dab]W[X8][NMeNle]LCG-NH2; thioether N-14), the IC50 lay within 10 to 99 nM.

As for `CCCC[C@H]1C(=O)N(C)[C@@H](CCCC)C(=O)N[C@@H](CC(C)C)C(=O)N[C@H](C(=O)NCC(N)=O)CSCC(=O)N[C@@H](Cc2ccc(O)cc2)C(=O)N(CC(=O)O)CC(=O)N[C@@H](CC(N)=O)C(=O)N2CCC[C@H]2C(=O)N[C@@H](Cc2cnc[nH]2)C(=O)N[C@@H](CCC(=O)O)C(=O)N2C[C@H](O)C[C@H]2C(=O)N[C@@H](Cc2c[nH]c3ccccc23)C(=O)N[C@@H](CCN)C(=O)N[C@@H](Cc2c[nH]c3ccccc23)C(=O)N1C` [Example 3044], the IC50 lay within 10 to 99 nM.

`CCCC[C@H]1C(=O)N(C)[C@@H](CCCC)C(=O)N[C@@H](CC(C)C)C(=O)N[C@H](C(=O)NCC(N)=O)CSCC(=O)N[C@@H](Cc2ccc(O)cc2)C(=O)N(CCO)CC(=O)N[C@@H](CC(N)=O)C(=O)N2CCC[C@H]2C(=O)N[C@@H](Cc2cnc[nH]2)C(=O)N[C@@H](CCC(=O)O)C(=O)N2C[C@H](O)C[C@H]2C(=O)N[C@@H](Cc2c[nH]c3ccccc23)C(=O)N[C@@H](CCN)C(=O)N[C@@H](Cc2c[nH]c3ccccc23)C(=O)N1C` [Example 3045] ({CH2CO}-Y[Gly(N-CH2CH2OH)]NPHE[Hyp]W[Dab]W[NMeNle][NMeNle]LCG-NH2; thioether N-14) displayed a half-inhibitory concentration (IC50) of 10 to 99 nM.

In turn, `CCCC[C@H]1C(=O)N(C)[C@@H](CCCC)C(=O)N[C@@H](CC(C)C)C(=O)N[C@H](C(=O)NCC(N)=O)CSCC(=O)N[C@@H](Cc2ccc(O)cc2)C(=O)N(CCC(F)(F)F)CC(=O)N[C@@H](CC(N)=O)C(=O)N2CCC[C@H]2C(=O)N[C@@H](Cc2cnc[nH]2)C(=O)N[C@@H](CCC(=O)O)C(=O)N2C[C@H](O)C[C@H]2C(=O)N[C@@H](Cc2c[nH]c3ccccc23)C(=O)N[C@@H](CCN)C(=O)N[C@@H](Cc2c[nH]c3ccccc23)C(=O)N1C` [Example 3046] ({CH2CO}-Y[X1]NPHE[Hyp]W[Dab]W[NMeNle][NMeNle]LCG-NH2; thioether N-14) registered an IC50 of 10 to 99 nM.

Regarding `CCCC[C@H]1C(=O)N(C)[C@@H](CCCC)C(=O)N[C@@H](CC(C)C)C(=O)N[C@H](C(=O)NCC(N)=O)CSCC(=O)N[C@@H](Cc2ccc(O)cc2)C(=O)N(C)[C@@H](C)C(=O)N[C@@H](CC(N)=O)C(=O)N2CCC[C@H]2C(=O)N[C@@H](Cc2c[nH]cn2)C(=O)N[C@@H](CCC(=O)O)C(=O)N(CC(=O)O)CC(=O)N[C@@H](Cc2c[nH]c3ccccc23)C(=O)N[C@@H](CCN)C(=O)N[C@@H](Cc2csc3ccccc23)C(=O)N1C` [Example 5001], the IC50 lay in the range of 5 to 9.9 nM.

In turn, `CCCC[C@H]1C(=O)N(C)[C@@H](CCCC)C(=O)N[C@@H](CC(C)C)C(=O)N[C@H](C(=O)NCC(N)=O)CSCC(=O)N[C@@H](Cc2ccc(O)cc2)C(=O)N(C)[C@@H](C)C(=O)N[C@@H](CC(N)=O)C(=O)N(CC(=O)O)CC(=O)N[C@@H](Cc2c[nH]cn2)C(=O)N[C@@H](CCC(=O)O)C(=O)N2C[C@H](O)C[C@H]2C(=O)N[C@@H](Cc2c[nH]c3ccccc23)C(=O)N[C@@H](CCN)C(=O)N[C@@H](Cc2csc3ccccc23)C(=O)N1C` [Example 5002] returned an IC50 of 5 to 9.9 nM.

Take `CCCC[C@H]1C(=O)N(C)[C@@H](CCCC)C(=O)N[C@@H](CC(C)C)C(=O)N[C@H](C(=O)NCC(N)=O)CSCC(=O)N[C@@H](Cc2ccc(O)cc2)C(=O)N(CC(=O)O)CC(=O)N[C@@H](CC(N)=O)C(=O)N2CCC[C@H]2C(=O)N[C@@H](Cc2cnc[nH]2)C(=O)N[C@@H](CCC(=O)O)C(=O)N2C[C@H](O)C[C@H]2C(=O)N[C@@H](Cc2c[nH]c3ccccc23)C(=O)N[C@@H](CCN)C(=O)N[C@@H](Cc2csc3ccccc23)C(=O)N1C` [Example 5003]: the IC50 lay within 10 to 99 nM.

For the origin of these results see patent publication US9861680B2, “Immunomodulators” (BRISTOL-MYERS SQUIBB COMPANY, priority 2014, dated 2018).
